This is an account of results in US20240066027A1 (DOMAIN THERAPEUTICS, priority 2020, published 2024).

SMILES strings stand for the structures. A value given as a limit tells only on which side of the number the result lay.

In the experiment the target is T1, human PAR-2 (hPAR-2) receptor expressed in HEK-293 T cells in an endogenous manner (Homo sapiens, UniProt P55085).
T1 construct: human PAR-2 (hPAR-2) receptor expressed in HEK-293 T cells in an endogenous manner; endogenous in cells; host or cells: HEK-293 T cells
T1 sequence (P55085 26-397): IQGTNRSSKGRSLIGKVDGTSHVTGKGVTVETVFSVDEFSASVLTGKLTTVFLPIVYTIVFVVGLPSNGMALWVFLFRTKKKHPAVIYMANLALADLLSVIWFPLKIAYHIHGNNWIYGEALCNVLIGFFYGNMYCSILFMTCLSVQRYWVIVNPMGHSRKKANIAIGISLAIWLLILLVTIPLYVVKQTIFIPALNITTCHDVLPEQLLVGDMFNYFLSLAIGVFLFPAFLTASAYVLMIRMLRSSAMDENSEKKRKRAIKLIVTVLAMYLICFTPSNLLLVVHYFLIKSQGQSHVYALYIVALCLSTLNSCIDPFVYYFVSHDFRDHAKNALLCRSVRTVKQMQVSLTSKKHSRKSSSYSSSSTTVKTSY
Put plainly: In vitro human PAR-2 functional antagonist activity using calcium assays (Fluo4AM, FLIPR Tetra). The format is cell-based. The settings on record: HEK-293 T cells stimulated by an EC80 of the 2-Furoyl-LIGRLO-NH2 peptide after 10 min incubation with compound; 20 concentrations, duplicate, two independent experiments. Here is the method:
In vitro human PAR-2 functional antagonist activity using calcium assays
Examples of the present invention were tested successively for their agonist and antagonist activities on human PAR-2 (hPAR-2) receptor expressed in HEK-293 T cells in an endogenous manner. Compounds exert agonist activity if, by themselves in absence of the 2-Furoyl-LIGRLO-NH2 peptide (selective hPAR-2 agonist), they activate PAR-2; they exert antagonist activity if they decrease the action of the 2-Furoyl-LIGRLO-NH2 peptide on the receptor. The assay used to determine compound activity is based on calcium measurement.
Cell Culture: HEK-293 T cells were maintained in Dulbecco's Modified Eagle's Medium supplemented with 10% Foetal Calf Serum, 1% Penicillin/Streptomycin at 37° C./5% CO2. Flasks for tests (F75) are seeded with 6e+06 cells 24 h before the experiment at 37° C./5% CO2.
Calcium assay: Receptor activity was detected by changes in intracellular calcium measured using the fluorescent Ca^2+ sensitive dye, Fluo4AM (Molecular Probes).
The day of the assay, medium was replaced by assay buffer (HBSS 1× (Gibco 14175-053), Hepes 20 mM, MgSO4-7H2O 1 mM, Na2CO3 3.3 mM, CaCl2-2H2O 1.3 mM, 0.5% BSA, Probenecid 2.5 mM, 0.1 mg/mL Pluronic Acid) and complemented with 1 μM Fluo4AM and cells were incubated during 1:30 h at 37° C.
Cells were then detached, resuspended in assay buffer and seeded in 384 wells, transparent-flat bottom black walled plates (2e+04 cells per well). Plates were incubated at +22° C. for 20 min. Compounds stock solutions were prepared in 100% DMSO and dilutions in test buffer were carried out in polypropylene plates with a digital dispenser (D300e, Tecan). Compounds were added to the cells and intracellular Ca^2+ measurements were collected at the same time on FLIPR Tetra® (Molecular Devices) with specific filters (Exc: 470-495 nm/Em: 515-575 nm).
Agonist and antagonist activities of compounds were consecutively evaluated on the same cell plate. Agonist activity was first measured after 10 min incubation with the compound alone. Then, cells were stimulated by an EC80 of the 2-Furoyl-LIGRLO-NH2 peptide and fluorescence was recorded for an additional 5 min. EC80 of the 2-Furoyl-LIGRLO-NH2 peptide was the concentration giving 80% of the maximal 2-Furoyl-LIGRLO-NH2 response. Agonist activities are evaluated in comparison to basal signals evoked by assay buffer or maximal 2-Furoyl-LIGRLO-NH2 response. […] Antagonist activities are evaluated in comparison to basal signals evoked by assay buffer or EC80 of 2-Furoyl-LIGRLO-NH2 alone.
On to `Cc1cc(N2CCN(C(=O)c3ccc4c(-c5ccc(Cl)c(F)c5)cn(C(C)(C)C)c4n3)CC2)nc(C)c1C(=O)O` [Example 99, 6-(4-(1-(tert-butyl)-3-(4-chloro-3-fluorophenyl)-1H-pyrrolo[2,3-b]pyridine-6-carbonyl)piperazin-1-yl)-2,4-dimethylnicotinic acid], for which the IC50 was < 20 nM.

As for `CC(C)(C(N)=O)c1ccnc(N2CCN(C(=O)c3ccc4c(-c5ccc(Cl)c(F)c5)cn(C(C)(C)C)c4n3)C(C)(C)C2)c1` [Example 177, 2-(2-(4-(1-(tert-butyl)-3-(4-chloro-3-fluorophenyl)-1H-pyrrolo[2,3-b]pyridine-6-carbonyl)-3,3-dimethylpiperazin-1-yl)pyridin-4-yl)-2-methylpropanamide], the IC50 was < 20 nM. The result for `Cc1cc(NC2CCN(C(=O)c3ccc4c(-c5ccc(Cl)c(F)c5)cn(C(C)(C)C)c4n3)CC2)nc(C)c1C(=O)O` [Example 100, 6-((1-(1-(tert-butyl)-3-(4-chloro-3-fluorophenyl)-1H-pyrrolo[2,3-b]pyridine-6-carbonyl)piperidin-4-yl)amino)-2,4-dimethylnicotinic acid] reads 20 to 10000 nM; that for `CC(C)Cn1cc(-c2ccc(Cl)cc2Cl)c2ccc(C(=O)N3CCNC(=O)C3(C)C)nc21` [Example 84, 4-(3-(2,4-dichlorophenyl)-1-isobutyl-1H-pyrrolo[2,3-b]pyridine-6-carbonyl)-3,3-dimethylpiperazin-2-one], 20 to 10000 nM. With `Cc1cc(N2CCN(C(=O)c3ccc4c(-c5ccc(Cl)c(F)c5)cn(Cc5cnccn5)c4n3)C(C)(C)C2)nc(C)c1C(=O)O` [Example 103, 6-(4-(3-(4-chloro-3-fluorophenyl)-1-(pyrazin-2-ylmethyl)-1H-pyrrolo[2,3-b]pyridine-6-carbonyl)-3,3-dimethylpiperazin-1-yl)-2,4-dimethylnicotinic acid], the IC50 lay in the range of 20 to 10000 nM. Regarding `CC(C)Cn1cc(-c2ccc(Cl)c(Cl)c2)c2ccc(C(=O)N3CCNC(=O)C3(C)C)nc21` [Example 107, 4-(3-(3,4-dichlorophenyl)-1-isobutyl-1H-pyrrolo[2,3-b]pyridine-6-carbonyl)-3,3-dimethylpiperazin-2-one], the IC50 was < 20 nM. Consider `Cc1cc(C2=CCN(C(=O)c3ccc4c(-c5ccc(Cl)c(F)c5)cn(C(C)(C)C)c4n3)CC2)nc(C)c1C(=O)O` [Example 167, 1′-(1-(tert-butyl)-3-(4-chloro-3-fluorophenyl)-1H-pyrrolo[2,3-b]pyridine-6-carbonyl)-4,6-dimethyl-1′,2′,3′,6′-tetrahydro-[2,4′-bipyridine]-5-carboxylic acid], for which the IC50 fell in the range of 20 to 10000 nM. `CC(C)Cn1cc(-c2cc3ccccc3o2)c2ccc(C(=O)N3CCNC(=O)C3(C)C)nc21` [Example 224, 4-(3-(benzofuran-2-yl)-1-isobutyl-1H-pyrrolo[2,3-b]pyridine-6-carbonyl)-3,3-dimethylpiperazin-2-one]: the IC50 was in the range of 20 to 10000 nM.

Take `CCOC(=O)c1ccc(N2CCN(C(=O)c3ccn4c(-c5ccc(Cl)cc5)nc(C(C)(C)C)c4n3)C(C)(C)C2)nc1` [Example 216, ethyl 6-(4-(8-(tert-butyl)-6-(4-chlorophenyl)imidazo[1,5-a]pyrimidine-2-carbonyl)-3,3-dimethylpiperazin-1-yl)nicotinate]: the concentration for half-maximal inhibition (IC50) was > 10000 nM.

For the compound `CN1C(=O)N(C)C2(CCN(C(=O)c3ccc4c(-c5ccc(Cl)c(F)c5)cn(C(C)(C)C)c4n3)CC2)C1=O` [Example 197, 8-(1-(tert-butyl)-3-(4-chloro-3-fluorophenyl)-1H-pyrrolo[2,3-b]pyridine-6-carbonyl)-1,3-dimethyl-1,3,8-triazaspiro[4.5]decane-2,4-dione], the IC50 was 20 to 10000 nM. Turning to `CC(C)Cn1cc(-c2ccccc2Cl)c2ccc(C(=O)N3CCNC(=O)C3(C)C)nc21` [Example 53, 4-[3-(2-chlorophenyl)-1-isobutyl-pyrrolo[2,3-b]pyridine-6-carbonyl]-3,3-dimethyl-piperazin-2-one], the IC50 lay within 20 to 10000 nM. Regarding `CC1(C)C(=O)NCCN1C(=O)c1ccc2c(-c3ccc(Cl)c(F)c3)cn(CCn3cccn3)c2n1` [Example 61, 4-(1-(2-(1H-pyrazol-1-yl)ethyl)-3-(4-chloro-3-fluorophenyl)-1H-pyrrolo[2,3-b]pyridine-6-carbonyl)-3,3-dimethylpiperazin-2-one], the IC50 was 20 to 10000 nM. For `Cc1cc(N2C[C@@H]3C[C@H]2CN3C(=O)c2ccc3c(-c4ccc(Cl)c(F)c4)cn(C(C)(C)C)c3n2)nc(C)c1C(=O)O` [Example 148, 6-((1S,4S)-5-(1-(tert-butyl)-3-(4-chloro-3-fluorophenyl)-1H-pyrrolo[2,3-b]pyridine-6-carbonyl)-2,5-diazabicyclo[2.2.1]heptan-2-yl)-2,4-dimethyinicotinic acid] the value was 20 to 10000 nM.

With `CCOP(=O)(O)c1ccc(N2CCN(C(=O)c3ccc4c(-c5ccc(Cl)c(F)c5)cn(C(C)(C)C)c4n3)C(C)(C)C2)nc1` [Example 195, ethyl hydrogen (6-(4-(1-(tert-butyl)-3-(4-chloro-3-fluorophenyl)-1H-pyrrolo[2,3-b]pyridine-6-carbonyl)-3,3-dimethylpiperazin-1-yl)pyridin-3-yl)phosphonate], the IC50 was 20 to 10000 nM.

Regarding `Cc1cc(N2CCN(C(=O)c3ccc4c(-c5ccc(Cl)c(F)c5)cn(CC(C)C)c4n3)C(C)(C)C2)nc(C)c1C(=O)O` [Example 95, 6-(4-(3-(4-chloro-3-fluorophenyl)-1-isobutyl-1H-pyrrolo[2,3-b]pyridine-6-carbonyl)-3,3-dimethylpiperazin-1-yl)-2,4-dimethylnicotinic acid], the IC50 was < 20 nM. In the case of `CC1(C)C(=O)NCCN1C(=O)c1ccc2c(-c3ccc(Cl)c(F)c3)cn(CC3CC3)c2n1` [Example 35, 4-(3-(4-chloro-3-fluorophenyl)-1-(cyclopropylmethyl)-1H-pyrrolo[2,3-b]pyridine-6-carbonyl)-3,3-dimethylpiperazin-2-one], the IC50 is < 20 nM. As for `Cc1cc(N(C)[C@@H]2CCN(C(=O)c3ccc4c(-c5ccc(Cl)c(F)c5)cn(C(C)(C)C)c4n3)C2)nc(C)c1C(=O)O` [Example 155, (R)-6-((1-(1-(tert-butyl)-3-(4-chloro-3-fluorophenyl)-1H-pyrrolo[2,3-b]pyridine-6-carbonyl)pyrrolidin-3-yl)(methyl)amino)-2,4-dimethylnicotinic acid], the IC50 was in the range of 20 to 10000 nM. As for `CC1(C)C(=O)N(CC(=O)O)CCN1C(=O)c1ccc2c(-c3ccc(Cl)c(F)c3)cn(C(C)(C)C)c2n1` [Example 4, 2-(4-(1-(tert-butyl)-3-(4-chloro-3-fluorophenyl)-1H-pyrrolo[2,3-b]pyridine-6-carbonyl)-3,3-dimethyl-2-oxopiperazin-1-yl)acetic acid], the IC50 is 20 to 10000 nM.

Take `Cc1cc(N2CCN(C(=O)c3ccc4c(-c5ccc(F)c(F)c5)cn(C(C)(C)C)c4n3)C(C)(C)C2)nc(C)c1C(=O)O` [Example 191, 6-(4-(1-(tert-butyl)-3-(3,4-difluorophenyl)-1H-pyrrolo[2,3-b]pyridine-6-carbonyl)-3,3-dimethylpiperazin-1-yl)-2,4-dimethylnicotinic acid]: the half-inhibitory concentration (IC50) was < 20 nM. On to `CC1(C)CN(C(=O)CCCCCCC(=O)O)CCN1C(=O)c1ccc2c(-c3ccc(Cl)c(F)c3)cn(C(C)(C)C)c2n1` [Example 215, 8-(4-(1-(tert-butyl)-3-(4-chloro-3-fluorophenyl)-1H-pyrrolo[2,3-b]pyridine-6-carbonyl)-3,3-dimethylpiperazin-1-yl)-8-oxooctanoic acid], for which the IC50 is < 20 nM. As to `CC(C)(C)c1cn(-c2ccc(Cl)c(F)c2)c2ccc(C(=O)N3CCNC(=O)C3(C)C)nc12` [Example 221, 4-(3-(tert-butyl)-1-(4-chloro-3-fluorophenyl)-1H-pyrrolo[3,2-b]pyridine-5-carbonyl)-3,3-dimethylpiperazin-2-one], the IC50 was < 20 nM.
